Structures are written as SMILES.

The target in this assay is T1, human GPR119 (Homo sapiens, UniProt Q8TDV5).
T1 sequence (Q8TDV5 1-308 limits assumed): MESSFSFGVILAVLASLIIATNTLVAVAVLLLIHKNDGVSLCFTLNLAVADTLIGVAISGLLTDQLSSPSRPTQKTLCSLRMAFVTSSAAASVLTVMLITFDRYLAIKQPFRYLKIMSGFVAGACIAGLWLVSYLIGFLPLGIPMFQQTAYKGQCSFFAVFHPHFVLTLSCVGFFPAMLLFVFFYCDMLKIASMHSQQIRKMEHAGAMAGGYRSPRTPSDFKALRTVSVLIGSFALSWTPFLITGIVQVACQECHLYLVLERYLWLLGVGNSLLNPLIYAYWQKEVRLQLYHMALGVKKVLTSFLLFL
In words: Measurement of GPR119 signaling by cAMP (LANCE cAMP kit or HTRF) in HEK293 cells transfected with human GPR119. The assay is classed as cell-based. To be noted: agonist cAMP response in HEK293 cells stably transfected with human GPR119; patent does not say which of the two cAMP formats (LANCE or HTRF). A digest of the protocol:
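LANCE TR-FRET cAMP readout; detection with Eu-SA/biotin-cAMP tracer for 3 h, signal converted to cAMP via standard curve, duplicates, 4-parameter fit vs DMSO basal and internal agonist maximum.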
Usually EC50 stands for the midpoint of the concentration-response curve. A high value points to weaker potency. Compound `O=C(Cc1ccc(OCC[C@@H]2C[C@@H]2C2CCN(c3ncc(Cl)cn3)CC2)cc1F)N1CC(c2cccnc2)C1` [Example 122] came in with an EC50 of 0.66 nM. This counts as sub-nanomolar.

`O=C(Cc1ccc(OCC[C@@H]2C[C@@H]2C2CCN(c3ncc(Cl)cn3)CC2)cc1F)N1CC(F)C1` [Example 68]: the EC50 is 0.33 nM. This EC50 lies about 2-fold lower than the previous one.

For the compound `COCc1cnc(N2CCC([C@H]3C[C@H]3CCOc3ccc(CC(=O)N4CCOCC4)cc3)CC2)nc1` [Example 10], the EC50 came to 8.3 nM.

In turn, `CN(CCS(C)(=O)=O)C(=O)Cc1ccc(OCC[C@@H]2C[C@@H]2C2CCN(c3ncc(Cl)cn3)CC2)cc1F` [Example 169] came in with an EC50 of 3.2 nM.

On to `COc1cnc(N2CCC([C@H]3C[C@H]3CCOc3cc(F)c(CC(=O)N4CCC4)c(F)c3)CC2)nc1` [Example 214], for which it took 0.2 nM to reach a half-maximal effect (EC50). This EC50 is about 16-fold lower than that of the compound before.

As for `O=C(Cc1ccc(OCC[C@@H]2C[C@@H]2C2CCN(c3ncc(Cl)cn3)CC2)cc1F)NC1(C(F)(F)F)CC1` [Example 87], a half-maximal response (EC50) required 3.6 nM.

`O=C(Cc1ccc(OCC[C@@H]2C[C@@H]2C2CCN(c3ncc(Cl)cn3)CC2)cc1F)N1CCc2cn[nH]c2C1` [Example 182]: the EC50 stood at 2.4 nM.

As to `COc1cnc(N2CCC([C@H]3C[C@H]3CCOc3ccc(CC(=O)N4CC(F)(F)C4)c(F)c3)CC2)nc1` [Example 40], the EC50 is 0.42 nM.

As for `CN(C(=O)Cc1ccc(OCC[C@@H]2C[C@@H]2C2CCN(c3ncc(Cl)cn3)CC2)cc1F)C1CCOCC1` [Example 155], the EC50 came out at 1.3 nM.

Regarding `CCc1cnc(N2CCC([C@H]3C[C@H]3CCOc3ccc(CC(=O)N4CCC4)c(OC)c3)CC2)nc1` [Example 27], the EC50 worked out at 3.2 nM.

For `CCOc1cnc(N2CCC([C@H]3C[C@H]3CCOc3cc(F)c(CC(=O)N4CC(O)C4)c(F)c3)CC2)nc1` [Example 232], the EC50 came to 0.55 nM.

For `Cc1cc(OCC[C@@H]2C[C@@H]2C2CCN(c3ncc(Cl)cn3)CC2)ccc1CC(=O)N(C)C` [Example 18, 2-[4-(2-{(1S,2R)-2-[1-(5-chloropyrimidin-2-yl)piperidin-4-yl]cyclopropyl}ethoxy)-2-methylphenyl]-N,N-dimethylacetamide], the EC50 is 1.7 nM.

The compound `COCc1cnc(N2CCC([C@H]3C[C@H]3CCOc3ccc(CC(=O)N(C)C)c(F)c3)CC2)nc1` [Example 47] returned an EC50 of 1.3 nM.

In turn, `COCc1cnc(N2CCC([C@H]3CC3CCOc3cc(F)c(CCO)c(F)c3)CC2)nc1` (stereo in doubt) [Example 240, 2-{2,6-Difluoro-4-[2-((1R,2R)-2-{1-[5-(methoxymethyl)pyrimidin-2-yl]piperidin-4-yl}cyclopropyl)ethoxy]phenyl}ethanol] gave an EC50 of 7.2 nM.

The compound `COC(=O)Cc1ccc(OCC[C@@H]2C[C@@H]2C2CCN(c3ncc(Cl)cn3)CC2)cc1F` [Example 61] showed an EC50 of 0.7 nM.

Turning to `O=C(Cc1ccc(OCC[C@@H]2C[C@@H]2C2CCN(c3ncc(Cl)cn3)CC2)cc1F)N1CCc2c(C(F)(F)F)n[nH]c2C1` [Example 147], the EC50 was 2.9 nM. This EC50 lies about 4.1-fold higher than the previous one.

`O=C(Cc1ccc(OCC[C@@H]2C[C@@H]2C2CCN(c3ncc(Cl)cn3)CC2)cc1F)N1CCn2c(nnc2C(F)(F)F)C1` [Example 133] gave an EC50 of 0.91 nM.

As to `CCc1nnc2n1CCN(C(=O)Cc1ccc(OCC[C@@H]3C[C@@H]3C3CCN(c4ncc(Cl)cn4)CC3)cc1F)C2` [Example 151], the response was half-maximal at 4.7 nM (EC50).

For `CN(C(=O)Cc1ccc(OCC[C@@H]2C[C@@H]2C2CCN(c3ncc(Cl)cn3)CC2)cc1F)C1CCS(=O)(=O)C1` (some centres unmarked) [Example 162], the EC50 amounted to 1.3 nM.

In turn, `O=C(Cc1ccc(OCC[C@@H]2C[C@@H]2C2CCN(c3ncc(Cl)cn3)CC2)cc1)NC1CC1` [Example 2] came in with an EC50 of 1.8 nM.

As to `O=C(Cc1ccc(OCC[C@@H]2C[C@@H]2C2CCN(c3ncc(Cl)cn3)CC2)cc1F)NC1CCCC1` [Example 83], a half-maximal response (EC50) required 1.3 nM.

`CC(C)(O)c1cnc(N2CCC([C@H]3C[C@H]3CCOc3ccc(CC(=O)N4CCC4)c(F)c3)CC2)nc1` [Example 205, 1-(azetidin-1-yl)-2-(2-fluoro-4-{2-[(1S,2R)-2-{1-[5-(2-hydroxypropan-2-yl]pyrimidin-2-yl]piperidin-4-yl}cyclopropyl]ethoxy}phenyl)ethanone] yielded an EC50 of 7.5 nM.

Take `COCc1cnc(N2CCC([C@H]3C[C@H]3CCOc3ccc(CC(=O)N(C)C)c(Cl)c3)CC2)nc1` [Example 28, 2-(2-chloro-4-{2-[(1S,2R)-2-{1-[5-(methoxymethyl)pyrimidin-2-yl]piperidin-4-yl}cyclopropyl]ethoxy}phenyl)-N,N-dimethylacetamide]: the EC50 turned out to be 2.3 nM. This EC50 is about 3.3-fold lower than that of the compound before.

`COCc1cnc(N2CCC([C@H]3C[C@H]3CCOc3ccc(CC(=O)N4CC(C)(O)C4)c(Cl)c3)CC2)nc1` [Example 31] gave an EC50 of 1.5 nM.

For `COc1cnc(N2CCC([C@H]3C[C@H]3CCOc3ccc(CC(=O)N(C)C)c(F)c3)CC2)nc1` [Example 36], the EC50 came to 1.7 nM. This EC50 and that of the compound before are within 1.5-fold of each other.

`COCc1cnc(N2CCC([C@H]3C[C@H]3CCOc3cc(F)c(CC(=O)N4CC(O)C4)c(F)c3)CC2)nc1` [Example 218, 1-({2,6-difluoro-4-[2-((1S,2R)-2-{1-[5-(methoxymethyl)pyrimidin-2-yl]piperidin-4-yl}cyclopropyl)ethoxy]phenyl}acetyl)azetidin-3-ol] yielded an EC50 of 1.6 nM.

Take `CCOc1cnc(N2CCC([C@H]3C[C@H]3CCOc3cc(F)c(CC(=O)N(C)C)c(F)c3)CC2)nc1` [Example 234]: it took 0.26 nM to reach a half-maximal effect (EC50).

`CCc1cnc(N2CCC([C@H]3C[C@H]3CCOc3ccc(CC(=O)N4CCC4)cn3)CC2)nc1` [Example 241, 1-(azetidin-1-yl)-2-[6-(2-{(1S,2R)-2-[1-(5-ethylpyrimidin-2-yl)piperidin-4-yl]cyclopropyl}ethoxy)pyridin-3-yl)ethanone] had an EC50 of 7.4 nM.

Turning to `O=C(Cc1ccc(OCC[C@@H]2C[C@@H]2C2CCN(c3ncc(Cl)cn3)CC2)cc1F)N1Cc2cccnc2C1` [Example 123], a half-maximal response (EC50) required 0.78 nM.

`COCc1cnc(N2CCC([C@H]3C[C@H]3CCOc3ccc(CC(=O)N4CC(OC)C4)cc3)CC2)nc1` [Example 8] gave an EC50 of 2.9 nM. Compared with the last compound, the EC50 is about 3.7-fold higher.

Consider `CC(C)(O)Cn1cc2c(n1)CN(C(=O)Cc1ccc(OCC[C@@H]3C[C@@H]3C3CCN(c4ncc(Cl)cn4)CC3)cc1F)C2` [Example 124], for which the EC50 came out at 3.2 nM.

`COC(=O)C1CN(C(=O)Cc2ccc(OCC[C@@H]3C[C@@H]3C3CCN(c4ncc(Cl)cn4)CC3)cc2F)C1` [Example 115]: the EC50 was 2.2 nM. This EC50 and that of the compound before are within 1.5-fold of each other.

Regarding `COCCN(C)C(=O)Cc1ccc(OCC[C@@H]2C[C@@H]2C2CCN(c3ncc(Cl)cn3)CC2)cc1F` [Example 104], the EC50 was determined as 1.3 nM.

Regarding `O=C(Cc1ccc(OCC[C@@H]2C[C@@H]2C2CCN(c3ncc(Cl)cn3)CC2)cc1F)N1C[C@H](F)[C@@H](F)C1` [Example 75], the EC50 worked out at 0.78 nM. Compared with the last compound, the EC50 is about 1.7-fold lower.

With `O=C(Cc1ccc(OCC[C@@H]2C[C@@H]2C2CCN(c3ncc(Cl)cn3)CC2)cc1F)N1CCc2ccncc2C1` [Example 128], a half-maximal response (EC50) required 2.3 nM.

`COc1cnc(N2CCC([C@H]3C[C@H]3CCOc3ccc(CC(=O)N4CC(O)C4)c(F)c3)CC2)nc1` [Example 33, 2-[2-fluoro-4-(2-{(1S,2R)-2-[1-(5-methoxypyrimidin-2-yl)piperidin-4-yl]cyclopropyl}ethoxy)phenyl]-1-(3-hydroxyazetidin-1-yl)ethanone]: the EC50 came out at 2.1 nM.

Compound `CC(C)(C)NC(=O)c1nnc2n1CCN(C(=O)Cc1ccc(OCC[C@@H]3C[C@@H]3C3CCN(c4ncc(Cl)cn4)CC3)cc1F)C2` [Example 178] gave an EC50 of 2.8 nM.

Consider `COCc1cnc(N2CCC([C@H]3C[C@H]3CCOc3ccc(CC(=O)N4CC(F)C4)cc3)CC2)nc1` [Example 11], for which the EC50 worked out at 2.9 nM.

Compound `O=C(Cc1ccc(OCC[C@@H]2C[C@@H]2C2CCN(c3ncc(Cl)cn3)CC2)cc1F)N1CCn2ncnc2C1` [Example 135] yielded an EC50 of 0.54 nM. This EC50 lies about 5.4-fold lower than the previous one.

Consider `CN(CC(N)=O)C(=O)Cc1ccc(OCC[C@@H]2C[C@@H]2C2CCN(c3ncc(Cl)cn3)CC2)cc1F` [Example 159], for which the EC50 came to 3.7 nM. Compared with the last compound, the EC50 is about 6.9-fold higher.

`CC(C)CN(C)C(=O)Cc1ccc(OCC[C@@H]2C[C@@H]2C2CCN(c3ncc(Cl)cn3)CC2)cc1F` [Example 166] gave an EC50 of 2 nM.

As for `O=C(Cc1ccc(OCC[C@@H]2C[C@@H]2C2CCN(c3ncc(Cl)cn3)CC2)cc1F)N1CCn2cc(C(F)(F)F)nc2C1` [Example 132], the EC50 turned out to be 0.55 nM.

For the compound `COCc1cnc(N2CCC([C@H]3C[C@H]3CCOc3ccc(CC(=O)N4CCc5nc(C)oc5C4)c(F)c3)CC2)nc1` [Example 58], the EC50 came out at 1.2 nM.

`CC1(C)CCN1C(=O)Cc1ccc(OCC[C@@H]2C[C@@H]2C2CCN(c3ncc(Cl)cn3)CC2)cc1F` [Example 97] returned an EC50 of 3.2 nM.

With `COc1nnc2n1CCN(C(=O)Cc1ccc(OCC[C@@H]3C[C@@H]3C3CCN(c4ncc(Cl)cn4)CC3)cc1F)C2` [Example 137], a half-maximal effect (EC50) was put at 3.9 nM.

`CCN(CC)C(=O)Cc1ccc(OCC[C@@H]2C[C@@H]2C2CCN(c3ncc(Cl)cn3)CC2)cc1F` [Example 98] had an EC50 of 9.2 nM.

Take `O=C(Cc1ccc(OCC[C@@H]2C[C@@H]2C2CCN(c3ncc(Cl)cn3)CC2)cc1F)N1CCCC1` [Example 85]: the EC50 is 0.61 nM.

For the origin of these results see patent publication US9018224B2, “Substituted cyclopropyl compounds useful as GPR119 agonists” (Merck Sharp & Dohme Corp., priority 2011, dated 2015).
